# Legend:
# [1] = test system: peritoneal murine macrophages (PM); assay: Cytokine production by peritoneal macrophages (ELISA); assay type: cell-based, mouse (Balb/c); details: for IL-6 production by PM / TNF-α production by PM: 18 h, P<0.05 vs untreated; for reduction of TNF-α production induced by LPS / reduction of TNF-α production induced by VHCDR3: PM 5×10^6/ml, wortmannin 4 nM or SB203580 0,2 µM; for reduction of TNF-α production induced by LPS: LPS 10 µg/ml; for reduction of TNF-α production induced by VHCDR3: VHCDR3 10 µg/ml
# Protocol: DC and CD4^+ T cells were separated from spleens of inbred Balb/c mice using N-418 or L3T4 mAb-conjugated MicroBeads (Miltenyi Biotec, Bergisch Gladbach, Germany), and magnetic separation was performed according to the manufacturer's instruction. Peritoneal murine neutrophils (PMN) and macrophages (PM) were collected 18 h or 4 days, respectively, after the intraperitoneal injection of 1 ml endotoxin-free 10% thioglycolate solution (Difco).
# (§1) Unfractionated spleen cells (10×10^6/ml), recovered from Balb/c mice, were cultured in the presence or absence of mAb HuA and mAb MoA CDR peptides, LPS or NC (all 10 µg/ml) for 18 h in RPMI-1640 plus 10% FCS (complete medium) at 37°C and 5% CO2. After incubation, the supernatants were collected and tested for TNF-α and IL-6 levels by specific ELISA assays (Biosource, Camarillo, CA, USA). In selected experiments, PM (5×10^6/ml) were cultured as above described. After incubation, the supernatants were collected and tested for TNF-α and IL-6 levels by specific ELISA assays (Biosource). PM (5×10^6/ml) were cultured in the presence or absence of mouse VHCDR3, LPS, NC or SP (all at 10 µg/ml) for 1 or 18 h in complete medium at 37°C and 5% CO2. PM (5×10^6/ml) were cultured as above described in the presence or absence of wortmannin (4 nM) or SB203580 (0,2 µM) (both from Sigma). After incubation, the supernatants were collected and tested for TNF-α level by specific ELISA assays (Biosource). In selected experiments, PM (5×10^6/ml) were cultured in the presence or absence of VHCDR3, LPS, NC, SP and nine VHCDR3 alanine-substituted derivatives (all at 10 µg/ml) for 18 h in complete medium at 37°C and 5% CO2. After incubation, the supernatants were collected and tested for TNF-α level by specific ELISA assays (Biosource). PMN (5×10^6/ml) were cultured in the presence or absence of mAb MoA CDR peptides, LPS or NC (all 10 µg/ml) for 18 h in complete medium at 37°C and 5% CO2. After incubation, the supernatants were collected and tested for TNF-α and IL-6 levels by specific ELISA assays (Biosource). Cytokine titers were calculated by reference to standard curves, constructed with known amounts of recombinant cytokines.
# murine splenocytes = assay: Cytokine production by unfractionated spleen cells (ELISA); assay type: cell-based, mouse (Balb/c); details: 10 µg/ml, 18 h, 10×10^6 cells/ml, ELISA of supernatants, data not shown
# Protocol: as §1
# IkBα = assay: Phospho-IkBα Western blotting in PM; assay type: cell-based, mouse (Balb/c); details: 1 h, n = 5
# Protocol: (§2) After incubation, cells were washed and lysated with Mammalian protein extraction reagent (M-PER) in the presence of protease and phosphatase inhibitors (all from Pierce, Rockford, IL). Protein concentration was determined with a BCA protein Assay Reagent kit (Pierce). The lysates (30 µg of each sample) were separated by sodium dodecyl-sulfate-10% PAGE, transferred to a nitrocellulose membrane (Pierce) for 1 h at 100 V in a blotting system (Bio-Rad) for Western Blot analysis, and the membranes were incubated over-night with rabbit polyclonal Abs to phospho-Akt (pAkt; dilution 1/1000), phospho-IkBα (pIkBα; dilution 1/1000) (all from Cell Signalling Technology, Beverly, MA) and rabbit polyclonal Ab to TLR-4 (dilution 1/200) (Santa Cruz Biotechnology Inc.) in blocking buffer. […] Immunoreactive bands were visualized and quantified by Chemidoc Instrument (Bio-Rad). In particular, a quantitative analysis of the region of interest drawn around the outer edge of the band, was performed based on the guidelines for the use of the Chemidoc Instrument (Bio-Rad). […] All the parallelograms that form a band create one unique three-dimensional solid structure on which the volume is calculated. […]
# PM = assay: Uptake of biotin-labelled peptide by PM (flow cytometry); details: 10 µg/ml, 37°C, FACScan, n = 7
# Protocol: DC, PM, PMN and CD4^+ T cells (all 1×10^6/ml) were incubated for 1 h with biotin-labelled mouse VHCDR3 (b-VHCDR3) or biotin-labelled NC (b-NC) (both 10 µg/ml) in complete medium at 37°C and 5% CO2. After incubation, cells were fixed with 4% formalin for 5 min at room temperature (RT), permeabilized with 0.1% saponin, washed with 0.1% saponin and incubated for 20 min on ice with FITC-labelled mAb to biotin (1 µl/test; Mouse IgG1 isotype) (Miltenyi Biotec), washed with 0.1% saponin and analyzed by FACScan flow cytometry (BD Biosciences). Data are reported as percentage of positive cells. In selected experiments, PM (1×10^6/ml) were incubated for different times with b-VHCDR3 or b-NC (both 10 µg/ml) in complete medium at 37°C and 5% CO2. After incubation, cells were fixed, permeabilized and washed as above and incubated for 20 min on ice with FITC-labelled mAb to biotin, washed with 0.1% saponin and analyzed by FACScan flow cytometry (BD Biosciences). Data are reported as mean fluorescence intensity (MFI) or percentage of positive cells. […] NC staining of cells with irrelevant Abs were used to obtain background fluorescence values.
# In selected experiments, PM were incubated for 1 h with b-VHCDR3 or b-NC (both 10 µg/ml) in complete medium at 37°C and 5% CO2. After incubation, cells were reacted with FITC-labelled mAb to biotin in the presence of Evans' Blue (StemCell Technologies Inc., Milan, Italy) as a counterstain, and subsequently examined under fluorescent light microscopy (Carl Zeiss, Jena, Germany).
# C. albicans (CA-6) = assay: Therapeutic activity against systemic candidiasis in mice; assay type: in vivo, Balb/c mice; details: 200 µg i.p. 4 h before, 100 µg 1 and 2 days after infection
# Protocol: Female, 8–10 weeks old, inbred Balb/c mice were obtained from Harlan Nossan Laboratories (Milan, Italy) and housed at the Animal Facilities of the University of Perugia, Perugia, Italy. Procedures involving animals and their care were conducted in conformity with national and international laws and policies.
# Groups of 7 Balb/c mice were infected intravenously with 5×10^5 or 7.5×10^5 CA-6 cells suspended in 0.5 ml saline for evaluation of fungal clearance or mice survival, respectively.
# Infected animals were given 200 µg of mouse VLCDR3 or VHCDR3 peptides intraperitoneally 4 h before infection, and 100 µg 1 and 2 days after infection for a total of 400 µg/mouse. Untreated animals served as a NC. Quantification of fungal growth at 5, 7, and 12 days after infection was assessed by plating serial dilutions of kidney homogenates onto Sabouraud agar. Animal survival was monitored for 30 days after infection.
# [2] = test system: C. albicans strain (CA-6); assay: In vitro candidacidal CFU assay; assay type: cell-based, Candida albicans; details: 100 µg/ml, CA-6 cells
# Protocol: The origin and characteristics of the highly virulent C. albicans strain (CA-6) used in this study have been previously described. The culture was maintained by serial passages on Sabouraud agar (BioMérieux, Lyon, France). The yeast cells were harvested by suspending a single colony in saline, washed twice, counted in a hemocytometer and adjusted to the desired concentration.
# The in vitro activity against CA-6 cells of mAb MoA synthetic CDRs at the concentration of 100 µg/ml was evaluated by a conventional Colony Forming Unit (CFU) assay as described elsewhere.
# Akt = assay: Phospho-Akt Western blotting in PM; assay type: cell-based, mouse (Balb/c); details: PM 3×10^6/ml, 10 µg/ml, 1 h, Western blot, with respect to NC and SP, n = 5
# Protocol: as §2
# TLR-4 [3] = assay: TLR-4 expression in PM (flow cytometry); assay type: cell-based, mouse (Balb/c); details: PM 1×10^6/ml, 10 µg/ml, 1 h, RPE-labelled mAb to TLR-4, FACScan, representative experiment out of five
# Text: Data are reported as percentage of positive cells. […] Data are expressed as percentage of positive cells.
# TNF-α gene = TNF-α gene expression in PM (quantitative RT-PCR); assay type: cell-based, mouse (Balb/c); details: PM 1×10^6/ml, 10 µg/ml, qPCR normalized against GADPH, n = 5
# Protocol: (§3) After incubation, cells were lysed using Trizol reagent (Invitrogen, Carlsbad, CA), and total RNA was extracted. The reverse transcriptase (RT) reaction was performed using Moloney murine leukaemia virus reverse transcriptase (M-MLV RT), as described in the manufacturer's instructions (Invitrogen).
# (§4) TNF-α, TLR-4, and GADPH clones for use as standards were prepared by PCR from cDNA derived from PM and cloned into p-Drive vector (Qiagen, S.p.A., Milano, Italy). These were verified by sequence analysis. Plasmid DNA was diluted 10-fold and the starting concentration for the dilution series was 10^8 gene copies/µl.
# (§5) For each target gene, primers were selected using the Beacon Designer software (Bio-Rad, Hercules, CA). Real-time RT-PCR (quantitative RT-PCR) was performed in 96-well PCR plates using the SYBR green (all from BioRad). For real-time PCR reaction 100 ng/µl of reverse-transcribed RNA was used and cDNA was normalized according to GADPH as an internal NC gene. Amplification conditions were the same for TNF-α, TLR-4 and GADPH mRNAs assayed: 3 min at 95°C, 40 cycles of 10 s at 95°C and 30 s at 62°C. For the Melt Curve, the amplification condition was: 1 min at 50°C and 90 cycles of 10 s at 50°C. The experiments were performed using the iCycler IQ Multicolor Real-time PCR Detection System (BioRad).
# TLR-4 gene = TLR-4 gene expression in PM (quantitative RT-PCR); assay type: cell-based, mouse (Balb/c); details: PM 1×10^6/ml, 10 µg/ml, qPCR normalized against GADPH, n = 5
# Protocol: as §3, §4, §5
# TLR-4 [4] = assay: TLR-4 protein Western blotting in PM; assay type: cell-based, mouse (Balb/c); details: PM 3×10^6/ml, 10 µg/ml, 1 and 3 h, Western blot, n = 5
# Protocol: as §2
# [5] = test system: C. albicans strain (CA-6); details: previously proven; ref [8], [16]; cited from earlier work
# Text: The CDRs of human mAb HuA (IgM) and mouse mAb MoA (IgM) specific for the difucosyl human blood group A substance, were chemically synthesized on the basis of the previously described sequences of VH and VL chain [21]. An irrelevant synthetic decapeptide (MSTAVSKCAT), previously proven to be devoid of either candidacidal or immunomodulatory activity, was used as a negative control (NC), [16]. In selected experiments, a scramble peptide (SP) (YYWLQGGFAN) and nine VHCDR3 alanine-substituted derivatives were used for control of specificity and evalua ...
# [6] = 10 µg/ml, 5×10^6 cells/ml, n = 7
Molecule,"IL-6 production by PM [1, 6]",IL-6 production by splenocytes (murine splenocytes),reduction of TNF-α production induced by LPS [1] [%],reduction of TNF-α production induced by VHCDR3 [1] [%],"TNF-α production by PM ([1]; 10 µg/ml, 5×10^6 cells/ml)",TNF-α production by splenocytes (murine splenocytes),Percentage of TLR-4 positive cells (TLR-4 [3]),"TNF-α gene expression, 1 and 6 h (TNF-α gene)","TLR-4 gene expression, 1 h (TLR-4 gene)",also measured
"QQRSNWPRS [mAb HuA VLCDR3, synthetic VLCDR3 of human mAb HuA]",significant up-regulation,significant up-regulation,–,–,–,–,–,–,–,–
COC[C@H]1OC(=O)c2coc3c2[C@@]1(C)C1=C(C3=O)[C@@H]2CCC(=O)[C@@]2(C)C[C@H]1OC(C)=O [wortmannin],–,–,39,28,–,–,–,–,–,"effect on VHCDR3-induced IkBα phosphorylation (IkBα; PM, wortmannin 4 nM with VHCDR3 10 µg/ml): significantly reduced"
C[S+]([O-])c1ccc(-c2nc(-c3ccncc3)c(-c3ccc(F)cc3)[nH]2)cc1 (centres unmarked) [SB203580],–,–,28,21,–,–,–,–,–,–
GQYGNLWFAY [VHCDR3],significant up-regulation,increased production,–,–,significant up-regulation,increased production,significant increase,significant increase,significant increase,"kinetics of uptake by PM (MFI and percentage of positive cells), 6 and 18 h (PM; 6 and 18 h incubation): persisted; kinetics of uptake by PM (MFI and percentage of positive cells), 1 h (PM; 1 h incubation): high level; kinetics of uptake by PM (MFI and percentage of positive cells), 72 h (PM; 72 h incubation): negligible levels; TNF-α production by PM after 1 h ([1]; 10 µg/ml, 1 h, 5×10^6 cells/ml, n = 7): significant increase; CFU recovery from kidneys (C. albicans (CA-6); 5×10^5 CA-6 cells i.v., 5, 7 and 12 days after infection, n = 7): impressive decrease; survival of infected mice (C. albicans (CA-6); 7.5×10^5 CA-6 cells i.v., 30 days, vs untreated or VLCDR3-treated, Log rank P<0.05, n = 7): significant increase in survival; candidacidal effect in vitro [2]: ineffective; Akt phosphorylation (pAkt normalized against Akt) (Akt): increased activation of pAkt; Percentage of TLR-4 positive cells (TLR-4 [3]; listed as VH CDR3): 38.1; TNF-α gene expression, 18 h (TNF-α gene; 18 h): rapid decline of gene expression; TLR-4 gene expression, 6 h (TLR-4 gene; 6 h): declined; IkBα phosphorylation (pIkBα normalized against IkBα) (IkBα; PM 3×10^6/ml, 10 µg/ml, Western blot, compared to NC): increased activation of pIkBα; TLR-4 protein (normalized against actin) (TLR-4 [4]): significant up-regulation"
"MSTAVSKCAT [NC, irrelevant synthetic decapeptide used as a negative control, reference compound]",did not stimulate cytokine production,did not affect cytokine production,–,–,did not stimulate cytokine production,did not affect cytokine production,24.1,inability,No activation,candidacidal or immunomodulatory activity [5]: devoid

# From publication PMC2781551, “Antibody Complementarity-Determining Regions (CDRs): A Bridge between Adaptive and Innate Immunity” (PLoS ONE, 2009)
